System: 889142-216-R-J1-PDC complex spheroid viability
Experiment: Anticancer human tumor 889142-216-R-J1-PDC patient-derived bladder carcinoma cell line growth inhibition [POLQ]
Details: for IC50: curve of first compound; for viability, T/C: stronger effect = lower value
How it was run: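 Three-cell-type spheroids modelling solid tumor plus stroma served as the readout system; POL inhibitors were tested individually and in combination, concentration ranges set by clinical Cmax where known.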

[1] = second compound 0.0316 µM, first compound 0.0316 µM
[2] = second compound 0.0316 µM, first compound 0.1 µM
[3] = second compound 0.0316 µM, first compound 0.316 µM
[4] = second compound 0.0316 µM, first compound 1 µM
[5] = second compound 0.0316 µM, first compound 3.16 µM
[6] = second compound 0.0316 µM, first compound 10 µM
[7] = second compound 0.1 µM, first compound 0.0316 µM
[8] = second compound 0.1 µM, first compound 0.1 µM
[9] = second compound 0.1 µM, first compound 0.316 µM
[10] = second compound 0.1 µM, first compound 1 µM
[11] = second compound 0.1 µM, first compound 3.16 µM
[12] = second compound 0.1 µM, first compound 10 µM
[13] = second compound 0.316 µM, first compound 0.0316 µM
[14] = second compound 0.316 µM, first compound 0.1 µM
[15] = second compound 0.316 µM, first compound 0.316 µM
[16] = second compound 0.316 µM, first compound 1 µM
[17] = second compound 0.316 µM, first compound 3.16 µM
[18] = second compound 0.316 µM, first compound 10 µM
[19] = second compound 1 µM, first compound 0.0316 µM
[20] = second compound 1 µM, first compound 0.1 µM
[21] = second compound 1 µM, first compound 0.316 µM
[22] = second compound 1 µM, first compound 1 µM
[23] = second compound 1 µM, first compound 3.16 µM
[24] = second compound 1 µM, first compound 10 µM
[25] = second compound 3.16 µM, first compound 0.0316 µM
[26] = second compound 3.16 µM, first compound 0.1 µM
[27] = second compound 3.16 µM, first compound 0.316 µM
[28] = second compound 3.16 µM, first compound 1 µM
[29] = second compound 3.16 µM, first compound 3.16 µM
[30] = second compound 3.16 µM, first compound 10 µM
[31] = second compound 10 µM, first compound 0.0316 µM
[32] = second compound 10 µM, first compound 0.1 µM
[33] = second compound 10 µM, first compound 0.316 µM
[34] = second compound 10 µM, first compound 1 µM
[35] = second compound 10 µM, first compound 3.16 µM
[36] = second compound 10 µM, first compound 10 µM
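Further: spheroids exposed to compounds for seven days.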
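Wherever viability, T/C is given: 100% = DMSO vehicle control viability.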

O=C(c1cc(Cc2n[nH]c(=O)c3ccccc23)ccc1F)N1CCN(C(=O)C2CC2)CC1 + COC1C(OC(N)=O)C(O)C(Oc2ccc3c(O)c(NC(=O)c4ccc(O)c(CC=C(C)C)c4)c(=O)oc3c2C)OC1(C)C
IC50 (second compound 0.0316 µM): > 10000 nM
IC50 (second compound 0.1 µM): > 10000 nM
IC50 (second compound 0.316 µM): > 10000 nM
IC50 (second compound 1 µM): > 10000 nM
IC50 (second compound 3.16 µM): > 10000 nM
IC50 (second compound 10 µM): > 10000 nM
viability, T/C [1]: 93%
viability, T/C [2]: 92.2%
viability, T/C [3]: 77.2%
viability, T/C [4]: 103%
viability, T/C [5]: 71%
viability, T/C [6]: 68.6%
viability, T/C [7]: 101%
viability, T/C [8]: 117%
viability, T/C [9]: 104%
viability, T/C [10]: 109%
viability, T/C [11]: 80.5%
viability, T/C [12]: 83.5%
viability, T/C [13]: 94.4%
viability, T/C [14]: 111%
viability, T/C [15]: 114%
viability, T/C [16]: 102%
viability, T/C [17]: 95.5%
viability, T/C [18]: 72%
viability, T/C [19]: 122%
viability, T/C [20]: 116%
viability, T/C [21]: 109%
viability, T/C [22]: 79.3%
viability, T/C [23]: 82.5%
viability, T/C [24]: 65.5%
viability, T/C [25]: 123%
viability, T/C [26]: 109%
viability, T/C [27]: 104%
viability, T/C [28]: 101%
viability, T/C [29]: 78.4%
viability, T/C [30]: 75.5%
viability, T/C [31]: 129%
viability, T/C [32]: 106%
viability, T/C [33]: 84.4%
viability, T/C [34]: 84.8%
viability, T/C [35]: 103%
viability, T/C [36]: 77.9%

C=CCn1c(=O)c2cnc(Nc3ccc(N4CCN(C)CC4)cc3)nc2n1-c1cccc(C(C)(C)O)n1 + Cc1cccc(N(C)C(=O)C2C(O)CCN2c2nc(C)cc(C(F)(F)F)c2C#N)c1
IC50 (second compound 0.0316 µM): > 1000 nM
IC50 (second compound 0.1 µM): > 1000 nM
IC50 (second compound 0.316 µM): > 1000 nM
IC50 (second compound 1 µM): > 1000 nM
IC50 (second compound 3.16 µM): > 1000 nM
IC50 (second compound 10 µM): > 1000 nM
viability, T/C (second compound 0.0316 µM, first compound 0.00316 µM): 113%
viability, T/C (second compound 0.0316 µM, first compound 0.01 µM): 93.8%
viability, T/C [1]: 103%
viability, T/C [2]: 101%
viability, T/C [3]: 90%
viability, T/C [4]: 55.5%
viability, T/C (second compound 0.1 µM, first compound 0.00316 µM): 99.3%
viability, T/C (second compound 0.1 µM, first compound 0.01 µM): 115%
viability, T/C [7]: 104%
viability, T/C [8]: 90.1%
viability, T/C [9]: 106%
viability, T/C [10]: 54.4%
viability, T/C (second compound 0.316 µM, first compound 0.00316 µM): 129%
viability, T/C (second compound 0.316 µM, first compound 0.01 µM): 89.5%
viability, T/C [13]: 99.2%
viability, T/C [14]: 95.8%
viability, T/C [15]: 75%
viability, T/C [16]: 69.3%
viability, T/C (second compound 1 µM, first compound 0.00316 µM): 118%
viability, T/C (second compound 1 µM, first compound 0.01 µM): 84.4%
viability, T/C [19]: 88.9%
viability, T/C [20]: 85.2%
viability, T/C [21]: 90.5%
viability, T/C [22]: 61.8%
viability, T/C (second compound 3.16 µM, first compound 0.00316 µM): 117%
viability, T/C (second compound 3.16 µM, first compound 0.01 µM): 113%
viability, T/C [25]: 78.2%
viability, T/C [26]: 111%
viability, T/C [27]: 80.8%
viability, T/C [28]: 59.8%
viability, T/C (second compound 10 µM, first compound 0.00316 µM): 108%
viability, T/C (second compound 10 µM, first compound 0.01 µM): 127%
viability, T/C [31]: 116%
viability, T/C [32]: 77%
viability, T/C [33]: 70.2%
viability, T/C [34]: 54.7%

COc1cccc2c1C(=O)c1c(O)c3c(c(O)c1C2=O)CC(O)(C(=O)CO)CC3OC1CC(N)C(O)C(C)O1 (stereo unspecified) + COC1C(OC(N)=O)C(O)C(Oc2ccc3c(O)c(NC(=O)c4ccc(O)c(CC=C(C)C)c4)c(=O)oc3c2C)OC1(C)C
IC50 (second compound 0.0316 µM): 170 nM
IC50 (second compound 0.1 µM): 164 nM
IC50 (second compound 0.316 µM): 173 nM
IC50 (second compound 1 µM): 173 nM
IC50 (second compound 3.16 µM): 254 nM
IC50 (second compound 10 µM): 219 nM
viability, T/C [1]: 59.9%
viability, T/C [2]: 68.7%
viability, T/C [3]: 33.4%
viability, T/C [4]: 2.42%
viability, T/C [5]: 0.42%
viability, T/C [6]: 0.92%
viability, T/C [7]: 53.4%
viability, T/C [8]: 67.9%
viability, T/C [9]: 36%
viability, T/C [10]: 4.22%
viability, T/C [11]: 0.75%
viability, T/C [12]: 0.62%
viability, T/C [13]: 56.7%
viability, T/C [14]: 67.5%
viability, T/C [15]: 36.8%
viability, T/C [16]: 1.29%
viability, T/C [17]: 0.94%
viability, T/C [18]: 0.7%
viability, T/C [19]: 60.6%
viability, T/C [20]: 63.1%
viability, T/C [21]: 37.3%
viability, T/C [22]: 3.64%
viability, T/C [23]: 0.4%
viability, T/C [24]: 1.06%
viability, T/C [25]: 62.3%
viability, T/C [26]: 59.1%
viability, T/C [27]: 47.5%
viability, T/C [28]: 2.54%
viability, T/C [29]: 0.84%
viability, T/C [30]: 0.98%
viability, T/C [31]: 62%
viability, T/C [32]: 62.5%
viability, T/C [33]: 44.3%
viability, T/C [34]: 2.05%
viability, T/C [35]: 1.06%
viability, T/C [36]: 0.92%
